4 compounds from patent US5354549A, “Iodinated esters” (Nycomed Imaging AS, priority 1987, dated 1994) can be followed below.

Read-outs that look alike come from different tables or passages of the source. Some results are limits rather than exact numbers.

Data set [1] can be described thus: In vitro biodegradation in Seronorm (release of Isopaque analysed by HPLC). It is filed as in vitro ADME. Conditions: pH 7.4, 37° C. The method, then:
(§1) The powdered product of Example 1 is suspended in Seronorm (5 mg/ml) (Seronorm is a trade mark of Nycomed AS) at pH 7.4 and agitated at 37° C. As a control the experiment is also performed in phosphate buffered saline (PBS) at pH 7.4. At different time points samples are taken from the supernatant after centrifugation of the vial (4,000 rpm, 10 minutes). The release of Isopaque (5-(N-acetylamino)-3-(N-acetyl-N-methylamino)-2,4,6-triiodobenzenecarboxylic acid) is analysed by HPLC. More than 50% of the substance is hydrolysed during 6 hours and after 24 hours 90% is hydrolysed.
(§2) The powdered product of Example 3 is suspended in Seronorm (0.5 mg/ml) at pH 7.4 and agitated at 37° C. As a control the experiment is also performed in phosphate buffered saline (PBS) at pit 7.4. At different time points samples are taken from the supernatant after centrifugation of the vial (4,000 rpm, 10 minutes). The release of Isopaque (5-(N-acetylamino)-3-(N-acetyl-N-methylamino)-2,4,6-triiodobenzenecarboxylic acid) is analysed by HPLC. 4.1% of the substance is hydrolysed during 24 hours. In PBS 0.12% is hydrolysed during 72 hours.
(§3) The powdered product of Example 10 is suspended in Seronorm (0.5 mg/ml) at pH 7.4 and agitated at 37° C. As a control the experiment is also performed in phosphate buffered saline (PBS) at pH 7.4. At different time points samples are taken from the supernatant after centrifugation of the vial (4,000 rpm, 10 minutes). The release of Isopaque (5-(N-acetylamino)-3-(N-acetyl-N-methylamino)-2,4,6-triiodobenzenecarboxylic acid) is analysed by HPLC. […] In PBS 58% is hydrolysed during 72 hours.
(§4) The powdered product of Example 4 is suspended in Seronorm at (0.5 mg/ml) pH 7.4 and agitated at 37° C. As a control the experiment is also performed in phosphate buffered saline (PBS) at pH 7.4. At different time points samples are taken from the supernatant after centrifugation of the vial (4,000 rpm, 10 minutes). The release of Isopaque (5-(N-acetylamino)-3-(N-acetyl-N-methylamino)-2,4,6-triiodobenzenecarboxylic acid) is analysed by HPLC. […] In PBS 34% was hydrolysed during 24 hours.

The nature of data set [2]: In vitro biodegradation, control in phosphate buffered saline (PBS). It is filed as in vitro ADME. Particulars: for degraded at 72 h: pH 7.4, 72 hours. The method, then: as §1, §2, §3, §4
[3] abbreviates: read-out: substance hydrolysed in PBS.

In the case of `CC(=O)Nc1c(I)c(C(=O)OCOC(=O)C(C)(C)C)c(I)c(N(C)C(C)=O)c1I` [Example 1, Pivaloyloxymethyl 5-(N-acetylamino)-3-(N-acetyl-N-methylamino)-2,4,6-triiodobenzenecarboxylate], the metabolised at 6 h in data set [1] (5 mg/ml, 6 hours, read-out: substance hydrolysed) was greater than 50%. For the same compound, the metabolised at 24 h in data set [1] (5 mg/ml, read-out: substance hydrolysed) is 90%. The “hydrolysis in PBS” value in data set [2] (pH 7.4, control) is “no hydrolysis could be detected”.

With `CC(=O)Nc1c(I)c(C(=O)OC(C)OC(=O)C(C)(C)C)c(I)c(N(C)C(C)=O)c1I` (stereo not shown) [Example 3, 1-(Pivaloylyloxy)ethyl 5-(N-acetylamino)-3-(N-acetyl-N-methyl-amino)-2,4,6-triiodobenzenecarboxylate], the metabolised at 24 h in data set [1] (0.5 mg/ml, read-out: substance hydrolysed) is 4.1%. In addition, in data set [2] (setting [3]), the degraded at 72 h stood at 0.12%.

With `CC(=O)Nc1c(I)c(C(=O)OCOC(C)=O)c(I)c(N(C)C(C)=O)c1I` [Example 10, Acetyloxvmethyl 5-(N-acetylamino)-3-(N-acetyl-N-methylamino)-2,4,6-triiodobenzenecarboxylate], the “hydrolysis of substrate” value in data set [1] (0.5 mg/ml, after 2 hours) is given as “completely hydrolysed”. Also, the degraded at 72 h in data set [2] (setting [3]) is 58%.

In the case of `CC(=O)Nc1c(I)c(C(=O)OC(C)OC(C)=O)c(I)c(N(C)C(C)=O)c1I` (stereo not shown) [Example 4, 1-(Acetyloxy)ethyl 5-(N-acetylamino)-3-(N-acetyl-N-methylamino)-2,4,6-triiodobenzenecarboxylate], the metabolised at 2 h in data set [1] (0.5 mg/ml, 2 hour incubation, read-out: substance hydrolysed) was determined as 29%. Moreover, the “hydrolysis” value in data set [1] (0.5 mg/ml, after 24 hours) is “hydrolysis is complete”. In addition, the degraded at 24 h in data set [2] (pH 7.4, 24 hours, read-out: substance hydrolysed in PBS) was 34%.
